# Laboratory results published in ChEMBL document CHEMBL1146149, “The development of 2-benzimidazole substituted pyrimidine based inhibitors of lymphocyte specific kinase (Lck)” (Bioorg Med Chem Lett, 2006).
# Assays:
# [1] = molecular target: Tyrosine-protein kinase Lck (Homo sapiens, UniProt P06239)
# Description: Inhibition of human recombinant Lck by ProFlour assay
# [2] = Aqueous solubility at pH 7.4; format: physicochemical
# [3] = tested on: Jurkat; test: Inhibition of IL2 production in Jurkat E6-1 T cells by ELISA; conditions: Homo sapiens
# [4] = Loss of metabolic stability in Sprague-Dawley rat hepatocytes after 1 hr at 1 uM; format: ADME, cell-based, Hepatocyte; conditions: read-out: Activity
# [5] = molecular target: Proto-oncogene tyrosine-protein kinase Src (Homo sapiens, UniProt P12931); test: Inhibition of human recombinant Src by ProFlour assay
# Sequence of Proto-oncogene tyrosine-protein kinase Src (P12931 2-536 limits assumed): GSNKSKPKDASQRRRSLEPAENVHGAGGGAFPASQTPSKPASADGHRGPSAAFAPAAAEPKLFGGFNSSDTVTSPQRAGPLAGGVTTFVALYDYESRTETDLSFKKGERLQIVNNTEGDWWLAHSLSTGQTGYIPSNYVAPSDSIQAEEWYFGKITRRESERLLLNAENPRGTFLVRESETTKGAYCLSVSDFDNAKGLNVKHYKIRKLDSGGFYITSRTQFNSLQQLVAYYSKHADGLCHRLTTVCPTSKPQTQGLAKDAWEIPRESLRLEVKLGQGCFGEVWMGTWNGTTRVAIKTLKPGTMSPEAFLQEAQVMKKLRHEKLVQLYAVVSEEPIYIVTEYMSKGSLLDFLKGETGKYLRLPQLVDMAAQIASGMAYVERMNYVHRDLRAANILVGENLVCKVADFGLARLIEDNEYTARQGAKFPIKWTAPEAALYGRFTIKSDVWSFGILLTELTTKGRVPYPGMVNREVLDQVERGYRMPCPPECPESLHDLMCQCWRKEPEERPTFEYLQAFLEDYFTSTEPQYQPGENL
# Sequence of Tyrosine-protein kinase Lck (P06239 whole entry): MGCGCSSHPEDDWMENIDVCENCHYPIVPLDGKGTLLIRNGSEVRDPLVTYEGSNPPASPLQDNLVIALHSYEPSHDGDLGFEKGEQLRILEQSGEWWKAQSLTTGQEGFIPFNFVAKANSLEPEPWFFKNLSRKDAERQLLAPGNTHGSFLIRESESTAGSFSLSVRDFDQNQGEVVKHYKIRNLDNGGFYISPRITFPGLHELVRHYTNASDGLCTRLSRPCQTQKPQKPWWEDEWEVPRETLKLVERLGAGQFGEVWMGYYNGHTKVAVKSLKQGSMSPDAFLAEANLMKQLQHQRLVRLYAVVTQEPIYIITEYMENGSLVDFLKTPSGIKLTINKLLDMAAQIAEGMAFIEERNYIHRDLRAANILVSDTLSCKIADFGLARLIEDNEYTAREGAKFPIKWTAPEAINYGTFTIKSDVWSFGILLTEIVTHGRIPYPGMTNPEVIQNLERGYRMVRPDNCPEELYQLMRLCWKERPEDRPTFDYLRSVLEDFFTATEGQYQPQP
Compound,IC50 [1] [µM],solubility [2] [µg/mL],IC50 [3] [nM],"metabolised at 1 h, 1 µM [4] [%]",IC50 [5] [nM]
COc1ccc(C)c(Nc2nccc(-n3cnc4ccccc43)n2)c1,> 10,–,–,–,–
Cc1ccc(O)cc1Nc1cc(N2CCN(C)CC2)nc(-n2cnc3ccccc32)n1,–,≤ 0.1,–,–,–
Cc1ccc(F)cc1Nc1ccnc(-n2cnc3ccccc32)n1,> 10,–,–,–,–
Cc1ccc(O)cc1Nc1cc(OCCN2CCOCC2)nc(-n2cnc3ccccc32)n1,–,3,54,48,–
Cc1ccc(O)cc1Nc1cc(-n2cnc3ccccc32)ncn1,> 10,–,–,–,–
COc1ccc(C)c(Nc2cc(OCCN3CCOCC3)nc(-n3cnc4ccccc43)n2)c1,–,27,1270,–,–
Oc1cccc(Nc2nccc(-n3cnc4ccccc43)n2)c1,> 10,–,–,–,–
Cc1ccc(O)cc1Nc1cc(OCCN2CCN(C)CC2)nc(-n2cnc3ccccc32)n1,–,70,400,35,–

# The next lines start with the values.
IC50 [1] [µM],solubility [2] [µg/mL],IC50 [3] [nM],"metabolised at 1 h, 1 µM [4] [%]",IC50 [5] [nM],Compound
–,54,2280,39,–,Cc1ccc(O)cc1Nc1cc(NCCN2CCN(C)CC2)nc(-n2cnc3ccccc32)n1
–,40,163,–,–,Cc1ccc(O)cc1Nc1cc(CC2CCN(C)CC2)nc(-n2cnc3ccccc32)n1
–,127,549,45,162,CCN(CC)CCNc1cc(Nc2cc(O)ccc2C)nc(-n2cnc3ccccc32)n1
–,55,2200,48,–,Cc1ccc(O)cc1Nc1cc(NCCCN(C)C)nc(-n2cnc3ccccc32)n1
